Experimental data published in US9695155B2, “Herbicidal substituted pyrimidinyloxy benzene compounds” (E. I. DU PONT DE NEMOURS AND COMPANY, priority 2013, dated 2017).

Assays:
barnyardgrass [1] = test: Test A preemergence; type: in vivo, Echinochloa crus-galli; conditions: for Plant response rating, Barnyardgrass: 0 to 100 scale where 0 is no effect and 100 is complete control
Method in brief: (§1)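 Injury scores run from 0, no effect, to 100, complete control, judged by eye against untreated plants roughly 10 days after treatment. Chemicals carried a surfactant in a non-phytotoxic solvent and went onto loam–sand soil preemergence or onto one- to two-leaf seedlings postemergence.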

yellow nutsedge = test: Test C postemergence; type: in vivo, Cyperus esculentus; conditions: for Nutsedge, Yellow plant response rating: 31 g ai/ha, 13 to 15 days
Method in brief: (§2)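 Whole-plant greenhouse test with surfactant-containing solvent formulation, applied preemergence to sown loam–sand pots or postemergence to 2–18 cm plants. Scored by eye 13 to 15 days on, 0–100 scale.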

johnsongrass = test: Test C postemergence; type: in vivo, Sorghum halepense; conditions: for Johnsongrass plant response rating: 31 g ai/ha, 13 to 15 days
Method in brief: as §2

oilseed rape = test: Test C postemergence; type: in vivo, Brassica napus; conditions: for Oilseed Rape plant response rating: 31 g ai/ha, 13 to 15 days
Method in brief: as §2

barnyardgrass [2] = test: Test C postemergence; type: in vivo, Echinochloa crus-galli
Method in brief: as §2

morningglory = test: Test C postemergence; type: in vivo, Ipomoea coccinea; conditions: for Morningglory plant response rating: 31 g ai/ha, 13 to 15 days
Method in brief: as §2

blackgrass = test: Test C postemergence; type: in vivo, Alopecurus myosuroides
Method in brief: as §2

sedge, umbrella = test: Test B flooded paddy test; type: in vivo, Cyperus difformis; conditions: Flood, 250 g ai/ha, 0 to 100 scale where 0 is no effect and 100 is complete control
Method in brief: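 Flooded to 3 cm at the 2-leaf stage, pots received compound through the paddy water and were kept at that depth under greenhouse conditions. After 13–15 days, effect was rated by eye relative to controls, 0 = none and 100 = complete control.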

wheat = test: Test A postemergence; type: in vivo, Triticum aestivum
Method in brief: as §1

kochia = test: Test C postemergence; type: in vivo, Kochia scoparia
Method in brief: as §2

large (Lg) crabgrass = test: Test C postemergence; type: in vivo, Digitaria sanguinalis
Method in brief: as §2

[3] = 8 g ai/ha, postemergence, 0 is no effect, 100 is complete control
[4] = 16 g ai/ha, postemergence, 0 is no effect, 100 is complete control
[5] = postemergence, visual rating, scale 0 to 100 (0 no effect, 100 complete control)
[6] = 4 g ai/ha, postemergence, 0 is no effect, 100 is complete control
[7] = 31 g ai/ha, postemergence, visual rating, scale 0 to 100 (0 no effect, 100 complete control), 13 to 15 days

## FCc1cccc(Oc2ncc(F)cn2)c1-n1cc(I)cn1 [Compound 152]
Barnyardgrass [1]; 31 g ai/ha, visual, approximately 10 days
  Plant response rating, Barnyardgrass: 20
Barnyardgrass [1]; 125 g ai/ha
  Plant response rating, Barnyardgrass: 70
Yellow nutsedge; [3]
  Plant response rating (0 to 100), Nutsedge, Yellow: 0
Yellow nutsedge; [4]
  Plant response rating (0 to 100), Nutsedge, Yellow: 0
Yellow nutsedge; [5]
  Nutsedge, Yellow plant response rating: 0
johnsongrass; [3]
  Plant response rating (0 to 100), Johnsongrass: 0
johnsongrass; [4]
  Plant response rating (0 to 100), Johnsongrass: 5
johnsongrass; [5]
  Johnsongrass plant response rating: 5
Oilseed rape; [3]
  Plant response rating (0 to 100), Oilseed Rape: 5
Oilseed rape; [4]
  Plant response rating (0 to 100), Oilseed Rape: 35
Oilseed rape; [5]
  Oilseed Rape plant response rating: 60
Barnyardgrass [2]; [6]
  Plant response rating (0 to 100), Barnyardgrass: 0
Barnyardgrass [2]; [3]
  Plant response rating (0 to 100), Barnyardgrass: 0
Barnyardgrass [2]; [4]
  Plant response rating (0 to 100), Barnyardgrass: 5
Barnyardgrass [2]; [7]
  Barnyardgrass plant response rating: 5
morningglory; [3]
  Plant response rating (0 to 100), Morningglory: 0
morningglory; [4]
  Plant response rating (0 to 100), Morningglory: 10
morningglory; [5]
  Morningglory plant response rating: 40
blackgrass; [6]
  Plant response rating (0 to 100), Blackgrass: 0
blackgrass; [3]
  Plant response rating (0 to 100), Blackgrass: 0
blackgrass; [4]
  Plant response rating (0 to 100), Blackgrass: 0
blackgrass; [7]
  Blackgrass plant response rating: 0
sedge, umbrella
  Plant response rating, Sedge, Umbrella: 50
wheat; 31 g ai/ha, 0 to 100 scale, 0 no effect, 100 complete control
  Plant response rating, Wheat: 20
wheat; 125 g ai/ha, 0 to 100 scale where 0 is no effect and 100 is complete control
  Wheat plant response rating: 40
kochia; [3]
  Plant response rating (0 to 100), Kochia: 10
kochia; [4]
  Plant response rating (0 to 100), Kochia: 15
kochia; [7]
  Kochia plant response rating: 40
Large (Lg) crabgrass; [3]
  Plant response rating (0 to 100), Crabgrass, Large: 5
Large (Lg) crabgrass; [4]
  Plant response rating (0 to 100), Crabgrass, Large: 5
Large (Lg) crabgrass; [7]
  Crabgrass, Large plant response rating: 5

## Clc1cnc(Oc2ccccc2-n2cc(C3CC3)nn2)nc1 [Compound 160, 5-chloro-2-[2-(4-cyclopropyl-1H-1,2,3-triazol-1-yl)phenoxy]pyrimidine]
Barnyardgrass [1]; Echinochloa crus-galli, pre-emergence, 240 h, 1000 g ai/ha, 0 to 100 scale, 0 no effect, 100 complete control, approx. 10 days, read-out: Barnyardgrass plant response rating
  pest or weed control at 1000 g/ha: 100%
Yellow nutsedge; [5]
  Nutsedge, Yellow plant response rating: 5
Yellow nutsedge; Cyperus, post-emergence, 16 g ai/ha, postemergence, 0 is no effect, 100 is complete control, read-out: Plant response rating (0 to 100), Nutsedge, Yellow
  pest or weed control at 16 g/ha: 5%
Yellow nutsedge; Cyperus, post-emergence, 125 g ai/ha, postemergence, visual rating, scale 0 to 100 (0 no effect, 100 complete control), read-out: Plant response rating, Nutsedge, Yellow
  pest or weed control at 125 g/ha: 5%
Yellow nutsedge; Cyperus, post-emergence, Postemergence, 62 g ai/ha, scale 0 to 100 (0 no effect, 100 complete control), read-out: Plant response rating, Nutsedge, Yellow
  pest or weed control at 62 g/ha: 5%
johnsongrass; [5]
  Johnsongrass plant response rating: 0
johnsongrass; Sorghum halepense, post-emergence, 16 g ai/ha, postemergence, 0 is no effect, 100 is complete control, read-out: Plant response rating (0 to 100), Johnsongrass
  pest or weed control at 16 g/ha: 0%
johnsongrass; Sorghum halepense, post-emergence, 125 g ai/ha, postemergence, visual rating, scale 0 to 100 (0 no effect, 100 complete control), read-out: Plant response rating, Johnsongrass
  pest or weed control at 125 g/ha: 5%
johnsongrass; Sorghum halepense, post-emergence, Postemergence, 62 g ai/ha, scale 0 to 100 (0 no effect, 100 complete control), read-out: Plant response rating, Johnsongrass
  pest or weed control at 62 g/ha: 0%
Oilseed rape; [5]
  Oilseed Rape plant response rating: 55
Oilseed rape; Brassica napus, post-emergence, 16 g ai/ha, postemergence, 0 is no effect, 100 is complete control, read-out: Plant response rating (0 to 100), Oilseed Rape
  plant injury at 16 g/ha: 10%
Oilseed rape; Brassica napus, post-emergence, 125 g ai/ha, postemergence, visual rating, scale 0 to 100 (0 no effect, 100 complete control), read-out: Plant response rating, Oilseed Rape
  plant injury at 125 g/ha: 60%
Oilseed rape; Brassica napus, post-emergence, Postemergence, 62 g ai/ha, scale 0 to 100 (0 no effect, 100 complete control), read-out: Plant response rating, Oilseed Rape
  plant injury at 62 g/ha: 60%
Barnyardgrass [2]; Echinochloa crus-galli, post-emergence, 16 g ai/ha, postemergence, 0 is no effect, 100 is complete control, read-out: Plant response rating (0 to 100), Barnyardgrass
  pest or weed control at 16 g/ha: 5%
Barnyardgrass [2]; Echinochloa crus-galli, post-emergence, 31 g ai/ha, postemergence, visual rating, scale 0 to 100 (0 no effect, 100 complete control), 13 to 15 days, read-out: Barnyardgrass plant response rating
  pest or weed control at 31 g/ha: 5%
Barnyardgrass [2]; Echinochloa crus-galli, post-emergence, 125 g ai/ha, postemergence, visual rating, scale 0 to 100 (0 no effect, 100 complete control), read-out: Plant response rating, Barnyardgrass
  pest or weed control at 125 g/ha: 5%
Barnyardgrass [2]; Echinochloa crus-galli, post-emergence, Postemergence, 62 g ai/ha, scale 0 to 100 (0 no effect, 100 complete control), read-out: Plant response rating, Barnyardgrass
  pest or weed control at 62 g/ha: 5%
morningglory; [5]
  Morningglory plant response rating: 75
morningglory; Ipomoea, post-emergence, 16 g ai/ha, postemergence, 0 is no effect, 100 is complete control, read-out: Plant response rating (0 to 100), Morningglory
  pest or weed control at 16 g/ha: 5%
morningglory; Ipomoea, post-emergence, 125 g ai/ha, postemergence, visual rating, scale 0 to 100 (0 no effect, 100 complete control), read-out: Plant response rating, Morningglory
  pest or weed control at 125 g/ha: 65%
morningglory; Ipomoea, post-emergence, Postemergence, 62 g ai/ha, scale 0 to 100 (0 no effect, 100 complete control), read-out: Plant response rating, Morningglory
  pest or weed control at 62 g/ha: 75%
blackgrass; Alopecurus myosuroides, post-emergence, 16 g ai/ha, postemergence, 0 is no effect, 100 is complete control, read-out: Plant response rating (0 to 100), Blackgrass
  pest or weed control at 16 g/ha: 0%
blackgrass; Alopecurus myosuroides, post-emergence, 31 g ai/ha, postemergence, visual rating, scale 0 to 100 (0 no effect, 100 complete control), 13 to 15 days, read-out: Blackgrass plant response rating
  pest or weed control at 31 g/ha: 0%
blackgrass; Alopecurus myosuroides, post-emergence, 125 g ai/ha, postemergence, visual rating, scale 0 to 100 (0 no effect, 100 complete control), read-out: Plant response rating, Blackgrass
  pest or weed control at 125 g/ha: 15%
blackgrass; Alopecurus myosuroides, post-emergence, Postemergence, 62 g ai/ha, scale 0 to 100 (0 no effect, 100 complete control), read-out: Plant response rating, Blackgrass
  pest or weed control at 62 g/ha: 5%
sedge, umbrella; Cyperus difformis, read-out: Plant response rating, Sedge, Umbrella
  pest or weed control at 250 g/ha: 75%
wheat; Triticum aestivum, post-emergence, 240 h, 1000 g ai/ha, 0 to 100 scale, 0 no effect, 100 complete control, read-out: Plant response rating Wheat
  plant injury at 1000 g/ha: 100%
kochia; Bassia scoparia, post-emergence, 16 g ai/ha, postemergence, 0 is no effect, 100 is complete control, read-out: Plant response rating (0 to 100), Kochia
  pest or weed control at 16 g/ha: 85%
kochia; Bassia scoparia, post-emergence, 31 g ai/ha, postemergence, visual rating, scale 0 to 100 (0 no effect, 100 complete control), 13 to 15 days, read-out: Kochia plant response rating
  pest or weed control at 31 g/ha: 90%
kochia; Bassia scoparia, post-emergence, 125 g ai/ha, postemergence, visual rating, scale 0 to 100 (0 no effect, 100 complete control), read-out: Plant response rating, Kochia
  pest or weed control at 125 g/ha: 100%
kochia; Bassia scoparia, post-emergence, Postemergence, 62 g ai/ha, scale 0 to 100 (0 no effect, 100 complete control), read-out: Plant response rating, Kochia
  pest or weed control at 62 g/ha: 98%
Large (Lg) crabgrass; Digitaria sanguinalis, post-emergence, 16 g ai/ha, postemergence, 0 is no effect, 100 is complete control, read-out: Plant response rating (0 to 100), Crabgrass, Large
  pest or weed control at 16 g/ha: 5%
Large (Lg) crabgrass; Digitaria sanguinalis, post-emergence, 31 g ai/ha, postemergence, visual rating, scale 0 to 100 (0 no effect, 100 complete control), 13 to 15 days, read-out: Crabgrass, Large plant response rating
  pest or weed control at 31 g/ha: 5%
Large (Lg) crabgrass; Digitaria sanguinalis, post-emergence, 125 g ai/ha, postemergence, visual rating, scale 0 to 100 (0 no effect, 100 complete control), read-out: Plant response rating, Crabgrass, Large
  pest or weed control at 125 g/ha: 10%
Large (Lg) crabgrass; Digitaria sanguinalis, post-emergence, Postemergence, 62 g ai/ha, scale 0 to 100 (0 no effect, 100 complete control), read-out: Plant response rating, Crabgrass, Large
  pest or weed control at 62 g/ha: 5%
